Source: patent US20200384013A1, “COMPOSITION FOR IMPROVEMENT OF SYMPTOMS OF SPINAL CORD INJURY” (MiZ Company Limited, priority 2019, published 2020)

Tests used:
[1] = compared with H2; stated as known; cited from earlier work
[2] = test system: symptoms of cervical spine/cervical cord injury
Description: They restored consciousness about a week after the accident.
Immediately before inhalation of hydrogen gas 6 years after the accident, they went to work in the afternoon 4 or 5 days a week, and stayed at home throughout a day when they felt ill. Further, they occasionally saw a doctor of psychiatry.
About 6 years after the accident, the patient underwent inhalation of hydrogen (hydrogen inhalation equipment: MHG-2000a Type, hydrogen concentration: 6 to 7.5%, hydrogen gas production rate: 140 mL/min, MiZ Company Limited (Kanagawa, Japan) over a period from Oct. 4, 2018 to May 12, 2019. Hydrogen was aspirated twice a day, once in the morning and once in the afternoon, for a total of 2 to 7.5 hours (an average of 3.3 hours a day), and as symptoms, pain, disordered sleep, decreased appetite, physical fatigue, mental fatigue, nervous fatigue, burning sensation on the back and foot spasticity were evaluated on Face Pain Scale (FPS; scale: 0 to 5) for about 7 months.
The FAS scales in FIGS. 1 to 5 indicate how the state changed after inhalation as compared to the state before inhalation. […] In FIGS. 1 to 5, the number of scores (e.g. 0 to 3) was counted for each of the periods, and the ratio (%) of the scores in each item was calculated. In the diagrams, the numbers shown outside the table represent the total numbers of respective scores.
Further, on May 13, 2019, the patient started inhalation of hydrogen using hydrogen gas inhalation equipment for professional use (hydrogen concentration: 6 to 7.5%, hydrogen gas production rate: 1,120 mL/min, MiZ Company Limited) instead of the hydrogen inhalation equipment MHG-2000a Type.
FIGS. 1 to 5 show the results of counting over a period from Oct. 4, 2018 to Feb. 14, 2019.
The patient recorded the FAS scores as well as their feeling before and after inhalation on paper record forms as will be described below.

[3] = normal temperature and normal pressure; also printed as 1.6 mg/L; cited from earlier work
[4] = test system: injured nerve cells of the spinal cord / spinal cord-injured animal model; settings: high-concentration hydrogen of, for example, 50% or more; X. Chen 2018, C. Chen 2010; cited from earlier work

Compound | superoxide eliminating action [1] | FAS “4” and FAS “5” scores ([2]; Oct. 4, 2018 to Feb. 14, 2019, all items, hydrogen 6 to 7.5%, 140 mL/min) | improvement in pain, sleep, appetite, physical fatigue, mental fatigue and nervous fatigue (Face Pain Scale scores) ([2]; Oct. 4 to Oct. 31, 2018, inhalation, hydrogen 6 to 7.5%, 140 mL/min, average 3.3 hours a day, FAS 0 and 1 scores recorded) | improvement in sensation on the back and improvement in foot spasticity (Face Pain Scale scores) ([2]; Oct. 4 to Oct. 31, 2018, inhalation, hydrogen 6 to 7.5%, 140 mL/min, FAS 2 and 3 scores, occasionally 1) | Face Pain Scale scores, all items, before against after inhalation ([2]; from May 13, 2019, equipment for professional use, hydrogen 6 to 7.5%, 1,120 mL/min) | ratio of FAS “1” scores ([2]; in and after November 2018, against inhalation time, hydrogen 6 to 7.5%, 140 mL/min) | FAS score recorded in any of the items ([2]; on and after Dec. 1, 2018, continuous inhalation, hydrogen 6 to 7.5%, 140 mL/min, scale 0 to 5) | body temperature and sweating reported by the patient ([2]; record May 13, 2019, equipment 1,120 mL/min, hydrogen 6 to 7.5%) | patient's recorded feeling (spasticity, peripheral nerve, metabolism, flow of blood, induction of sleep) ([2]; record May 13, 2019, equipment 1,120 mL/min, hydrogen 6 to 7.5%, compared with before) | concentration of hydrogen dissolved in water [3] | nerve cells of the spinal cord [4] | oxidative stress [4]
[2H][2H] [D2, deuterium] | higher than that of H2 |  |  |  |  |  |  |  |  |  |  | 
[HH] [hydrogen gas, molecular hydrogen] |  | not recorded at all | good improvement tendency | the improvement tendency was unknown or became worse | improvement occurred in all the items | tended to increase as the inhalation time increased | 3 | the body temperature rises, and thus sweating cannot be stopped | a more potent effect is exhibited | about 1.6 ppm | the nerve cells of the spinal cord were protected | oxidative stress was suppressed
